Counter-ions that a name gives are not always drawn.
What was measured:
CLK1 = molecular target: T1, CLK1 (Homo sapiens, UniProt P49759); assay: Radiometric protein kinase assay (33PanQinase Activity Assay), CLK1; assay type: biochemical; conditions: class by IC50 on CLK1, from dose-response curves; read-out: Potency Class CLK1
T1 construct: GST-fusion or His-tag (not specified per kinase); purchased ProQinase GmbH; host or cells: Sf9 insect cells or E. coli (not specified per kinase)
Procedure, shortened: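 Recombinant human kinases (GST- or His-tagged, full-length or active fragments, from Sf9 or E. coli) were run in the radiometric 33PanQinase assay with [γ-33P]-ATP. Compounds were tested at 10 concentrations from 10 μM to 30 nM in 1% DMSO, incubated 60 min at 30 °C, and IC50 derived from dose-response curves.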

DYRK1A = molecular target: T2, DYRK1A (Homo sapiens, UniProt Q13627); assay: Radiometric protein kinase assay (33PanQinase Activity Assay), DYRK1A; assay type: biochemical; conditions: for IC50: class by IC50 on DYRK1A, from dose-response curves, read-out: Potency Class DYRK1A; for Selectivity Class DYRK1A vs. CLK1: ratio of IC50 on CLK1 over IC50 on DYRK1A; for Selectivity Class DYRK1A vs. DYRK1B: ratio of IC50 on DYRK1B over IC50 on DYRK1A
T2 construct: GST-fusion or His-tag (not specified per kinase); purchased ProQinase GmbH; host or cells: Sf9 insect cells or E. coli (not specified per kinase)
Procedure, shortened: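 Recombinant human kinase, expressed in Sf9 or E. coli, in a radiometric [γ-33P]-ATP assay at 30 °C for 60 min. Compounds tested at 10 concentrations from 10 μM to 30 nM, 1% DMSO final. 33Pi incorporation measured by scintillation counting; IC50 from dose-response curves.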

T1 sequence (P49759 whole entry, the tested form may be a part): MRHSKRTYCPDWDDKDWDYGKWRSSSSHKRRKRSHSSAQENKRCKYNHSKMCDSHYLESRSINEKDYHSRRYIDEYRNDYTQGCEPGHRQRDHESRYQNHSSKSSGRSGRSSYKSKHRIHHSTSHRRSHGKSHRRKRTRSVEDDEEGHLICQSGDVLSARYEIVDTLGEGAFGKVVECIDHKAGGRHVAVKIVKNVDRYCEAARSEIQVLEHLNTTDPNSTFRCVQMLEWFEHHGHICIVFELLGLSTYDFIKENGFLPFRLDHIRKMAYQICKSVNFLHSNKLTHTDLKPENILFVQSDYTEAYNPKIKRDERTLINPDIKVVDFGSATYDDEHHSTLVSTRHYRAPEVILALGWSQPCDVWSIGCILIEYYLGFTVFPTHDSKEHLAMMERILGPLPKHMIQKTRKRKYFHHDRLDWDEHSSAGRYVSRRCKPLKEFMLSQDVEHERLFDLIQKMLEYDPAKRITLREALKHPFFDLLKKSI

IC50 (CLK1) [nM] | IC50 (DYRK1A) [nM] | Selectivity Class DYRK1A vs. CLK1 (DYRK1A) | Selectivity Class DYRK1A vs. DYRK1B (DYRK1A) | Compound
> 50 | > 50 | III (ratio between 0.5 and 2 fold) | II (ratio between 2 and 10 fold) | O=C1NC(NCc2ccccc2C(F)(F)F)=N/C1=C\c1ccc2nccnc2c1 [Compound 22, (4Z)-4-(quinoxalin-6-ylmethylene)-2-[[2-(trifluoromethyl)phenyl]methylamino]-1H-imidazol-5-one]
> 50 | > 50 | III (ratio between 0.5 and 2 fold) | III (ratio between 0.5 and 2 fold) | CN1C(=O)/C(=C/c2ccc3nccnc3c2)N=C1NC1CCCCCC1 [Compound 83, (5Z)-2-(Cycloheptylamino)-3-methyl-5-(quinoxalin-6-ylmethylene)imidazol-4-one]
25 to 50 | 25 to 50 | III (ratio between 0.5 and 2 fold) | II (ratio between 2 and 10 fold) | NC[C@H](NC1=N/C(=C\c2ccc3nccnc3c2)C(=O)N1)c1ccccc1 [Compound 28, (4Z)-2-[[(1R)-2-amino-1-phenyl-ethyl]amino]-4-(quinoxalin-6-ylmethylene)-1H-imidazol-5-one dihydrochloride]
> 50 | > 50 | III (ratio between 0.5 and 2 fold) | II (ratio between 2 and 10 fold) | O=C1NC(NCc2ccccc2)=N/C1=C\c1ccc2nccnc2c1 [Compound 21]
> 50 | > 50 | III (ratio between 0.5 and 2 fold) | II (ratio between 2 and 10 fold) | O=C1NC(NC2CCCCC2)=N/C1=C\c1ccc2cnccc2c1 [Compound 75, (4Z)-2-(Cyclohexylamino)-4-(6-isoquinolylmethylene)-1H-imidazol-5-one]
> 50 | > 50 | II (ratio between 2 and 10 fold) | II (ratio between 2 and 10 fold) | COC[C@@H](CC(C)C)NC1=N/C(=C\c2ccc3ncncc3c2)C(=O)N1 [Compound 78, (4Z)-2-[[(1R)-1-(methoxymethyl)-3-methyl-butyl]amino]-4-(quinazolin-6-ylmethylene)-1H-imidazol-5-one]
> 50 | > 50 | III (ratio between 0.5 and 2 fold) | II (ratio between 2 and 10 fold) | O=C1NC(NC2CCCCOC2)=N/C1=C\c1ccc2nccnc2c1 (racemic) [Compound 41, (4Z)-2-(Oxepan-3-ylamino)-4-(quinoxalin-6-ylmethylene)-1H-imidazol-5-one]
> 50 | > 50 | III (ratio between 0.5 and 2 fold) | II (ratio between 2 and 10 fold) | O=C1NC(N[C@H]2CCCOC2)=N/C1=C\c1ccc2nccnc2c1 [Compound 38, (4Z)-4-(quinoxalin-6-ylmethylene)-2-[[(3S)-tetrahydropyran-3-yl]amino]-1H-imidazol-5-one]
> 50 | > 50 | III (ratio between 0.5 and 2 fold) | II (ratio between 2 and 10 fold) | O=C1NC(NC2COCCOC2)=N/C1=C\c1ccc2nccnc2c1 [Compound 42, (4Z)-2-(1,4-dioxepan-6-ylamino)-4-(quinoxalin-6-ylmethylene)-1H-imidazol-5-one]
> 50 | > 50 | II (ratio between 2 and 10 fold) | II (ratio between 2 and 10 fold) | CO[C@@H]1CCC[C@@H](NC2=N/C(=C\c3ccc4nccnc4c3)C(=O)N2)CC1 (racemic) [Compound 7, (+)-(4Z)-2-[[trans-4-methoxycycloheptyl]amino]-4-(quinoxalin-6-ylmethylene)-1H-imidazol-5-one]
> 50 | > 50 | IV (ratio between 0.1 and 0.5 fold) | III (ratio between 0.5 and 2 fold) | CN1C(=O)/C(=C/c2ccc3ncccc3c2)N=C1NC1CCCCCC1 [Compound 85, (5Z)-2-(Cycloheptylamino)-3-methyl-5-(quinolin-6-ylmethylene)imidazol-4-one]
> 50 | 25 to 50 | II (ratio between 2 and 10 fold) | II (ratio between 2 and 10 fold) | COC[C@@H](CC(C)C)NC1=N/C(=C\c2ccc3ncccc3c2)C(=O)N1 [Compound 47, (4Z)-2-[[(1R)-1-(methoxymethyl)-3-methyl-butyl]amino]-4-(6-quinolylmethylene)-1H-imidazol-5-one]
> 50 | > 50 | IV (ratio between 0.1 and 0.5 fold) | II (ratio between 2 and 10 fold) | O=C1NC(NCc2ccccc2)=N/C1=C\c1ccc2ncccc2c1 [Compound 51]
> 50 | 25 to 50 | III (ratio between 0.5 and 2 fold) | II (ratio between 2 and 10 fold) | O=C1NC(N[C@@H]2CCCOC2)=N/C1=C\c1ccc2nccnc2c1 [Compound 39, (4Z)-4-(quinoxalin-6-ylmethylene)-2-[[(3R)-tetrahydropyran-3-yl]amino]-1H-imidazol-5-one]
> 50 | > 50 | III (ratio between 0.5 and 2 fold) | II (ratio between 2 and 10 fold) | O=C1NC(N[C@@H]2CCOC2)=N/C1=C\c1ccc2nccnc2c1 [Compound 37, (4Z)-4-(quinoxalin-6-ylmethylene)-2-[[(3R)-tetrahydrofuran-3-yl]amino]-1H-imidazol-5-one]

Compound | IC50 (CLK1) [nM] | IC50 (DYRK1A) [nM] | Selectivity Class DYRK1A vs. CLK1 (DYRK1A) | Selectivity Class DYRK1A vs. DYRK1B (DYRK1A)
CCOC[C@@H](CC(C)C)NC1=N/C(=C\c2ccc3nccnc3c2)C(=O)N1 [Compound 11, (4Z)-2-[[(1R)-1-(ethoxymethyl)-3-methyl-butyl]amino]-4-(quinoxalin-6-ylmethylene)-1H-imidazol-5-one] | > 50 | 10 to 25 | I (ratio of IC50 on CLK1 or DYRK1B over IC50 on DYRK1A ≥10 fold (most DYRK1A-selective compounds)) | II (ratio between 2 and 10 fold)
O=C1NC(NCc2ccccc2)=N/C1=C\c1ccc2cnccc2c1 [Compound 62, (4Z)-2-(benzylamino)-4-(6-isoquinolylmethylene)-1H-imidazol-5-one] | > 50 | > 50 | V (ratio >0.1 fold (most CLK1- or DYRK1B-selective compounds)) | IV (ratio between 0.1 and 0.5 fold)
CC(C)C[C@H](COCc1ccccc1)NC1=N/C(=C\c2ccc3nccnc3c2)C(=O)N1 [Compound 12, (4Z)-2-[[(1R)-1-(benzyloxymethyl)-3-methyl-butyl]amino]-4-(quinoxalin-6-ylmethylene)-1H-imidazol-5-one] | > 50 | > 50 | I (ratio of IC50 on CLK1 or DYRK1B over IC50 on DYRK1A ≥10 fold (most DYRK1A-selective compounds)) | II (ratio between 2 and 10 fold)
